# Patent US9409905B2, “Antibacterial compounds and methods for use” (PTC THERAPEUTICS, INC., priority 2011, dated 2016)
# What was measured:
# [1] = tested on: Escherichia coli (E. coli) BAS849; assay: Antibacterial activity, microbroth dilution MIC (Table 1); format: cell-based; details: microbroth dilution, super sensitive Gram-negative E. coli BAS849, read-out: MIC, BAS849
# Outline: (§1)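 Read-out: visual absence of growth. The lowest concentration meeting this gives the MIC, expressed in μg/mL, with microbroth dilution as the method.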
# [2] = tested on: Staphylococcus aureus (S. aureus) 29213; assay: as above; format: cell-based; details: microbroth dilution, Gram-positive S. aureus 29213, read-out: MIC, 29213
# Outline: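 Microbroth dilution was used. MIC, in μg/mL, is the lowest drug concentration preventing macroscopically visible growth under the test conditions.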
# [3] = tested on: E. coli 25922; assay: as above; format: cell-based, Escherichia coli; details: Escherichia coli; microbroth dilution; control Gram-negative E. coli 25922 strain; read-out: MIC, 25922
# Outline: as §1
# [4] = tested on: E. coli LZ3111; assay: Antibacterial activity, MIC, quinolone resistant strain (Table 2); format: cell-based; details: Escherichia coli, LZ3111, read-out: MIC LZ3111
# Outline: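 Broth microdilution. Read-out: MIC in μg/mL, taken as lowest concentration with no macroscopically visible growth.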
# [5] = tested on: E. coli ELZ4000; assay: Antibacterial activity, MIC, multi-drug resistant clinical isolate (Table 3); format: cell-based; details: Escherichia coli, ELZ4000, read-out: MIC ELZ4000
# Description: (§2) The antibacterial activity from a microbroth dilution method may be presented as the minimum inhibitory concentration (MIC in μg/mL). The MIC value is the lowest concentration of drug which prevents macroscopically visible growth under test conditions.
# (§3) Antibacterial activity of test compounds against E. coli ELZ4000 and E. coli ELZ4251 multi-drug resistant clinical isolates is shown in Table 3.
# [6] = tested on: E. coli ELZ4251; assay: as above; format: cell-based; details: Escherichia coli
# Description: as §2, §3
# [7] = tested on: Acinetobacter baumannii (A. baumannii) BAA747; assay: Antibacterial activity, MIC (Table 4); format: cell-based; details: A. baumannii BAA747, read-out: MIC, BAA747
# Outline: (§4)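 Broth microdilution; MIC (μg/mL) = lowest concentration with no macroscopically visible growth. Resistant strains: multi-drug resistant clinical isolates.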
# [8] = tested on: A. baumannii MXX2240; assay: Antibacterial activity, MIC, resistant strain (Table 4); format: cell-based; details: Acinetobacter baumannii, MXX2240; resistant A. baumannii MMX2240, multi-drug resistant clinical isolate; read-out: MIC, MMX2240
# Outline: as §4
# [9] = tested on: K. pneumoniae MXX1232; assay: as above; format: cell-based; details: Klebsiella pneumoniae, MXX1232; resistant K. pneumoniae MMX1232, multi-drug resistant clinical isolate; read-out: MIC, MMX1232
# Outline: as §4
# [10] = tested on: Pseudomonas aeruginosa (P. aeruginosa) 27853; assay: Antibacterial activity, MIC (Table 5); format: cell-based; details: P. aeruginosa 27853, read-out: MIC, 27853
# Outline: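 Microbroth dilution; MIC (μg/mL) = lowest concentration with no macroscopically visible growth.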
Compound,MIC [1] [µg/mL],MIC [2] [µg/mL],MIC [3] [µg/mL],MIC [4] [µg/mL],MIC [5] [µg/mL],MIC [6] [µg/mL],MIC [7] [µg/mL],MIC [8] [µg/mL],MIC [9] [µg/mL],MIC [10] [µg/mL]
"CCc1c(-c2ccc3c(c2)cc(CNC(CF)CF)n3C)[nH]c(=O)c(C(=O)O)c1O [Cpd 274, 6-(2-((1,3-difluoropropan-2-ylamino)methyl)-1-methyl-1H-indol-5-yl)-5-ethyl-4-hydroxy-2-oxo-1,2-dihydropyridine-3-carboxylic acid]",< 1,3.5 to 12.5,1 to 3.5,3.5 to 12.5,12.5 to 150,3.5 to 12.5,3.5 to 12.5,3.5 to 12.5,12.5 to 150,12.5 to 150
"CCc1c(-c2ccc3c(c2)cc(CN2C[C@H]4C[C@@H](NC)C[C@H]4C2)n3C)[nH]c(=O)c(C(=O)O)c1O [Cpd 289, 5-ethyl-4-hydroxy-6-(1-methyl-2-(((3aR,5r,6aS)-5-(methylamino)hexahydrocyclopenta[c]pyrrol-2(1H)-yl)methyl)-1H-indol-5-yl)-2-oxo-1,2-dihydropyridine-3-carboxylic acid]",1 to 3.5,12.5 to 150,12.5 to 150,3.5 to 12.5,12.5 to 150,12.5 to 150,12.5 to 150,–,–,12.5 to 150
"CCc1c(-c2ccc3c(c2)cc(CNCCN(C)C)n3C)[nH]c(=O)c(C(=O)O)c1O [Cpd 302, 6-(2-((2-(dimethylamino)ethylamino)methyl)-1-methyl-1H-indol-5-yl)-5-ethyl-4-hydroxy-2-oxo-1,2-dihydropyridine-3-carboxylic acid]",< 1,12.5 to 150,1 to 3.5,3.5 to 12.5,12.5 to 150,3.5 to 12.5,3.5 to 12.5,–,–,12.5 to 150
"Cc1c(-c2ccc3c(c2)cc(CN2CCCC2)n3C)[nH]c(=O)c(C(=O)O)c1O [Cpd 313, 4-hydroxy-5-methyl-6-(1-methyl-2-(pyrrolidin-1-ylmethyl)-1H-indol-5-yl)-2-oxo-1,2-dihydropyridine-3-carboxylic acid]",< 1,12.5 to 150,3.5 to 12.5,1 to 3.5,3.5 to 12.5,1 to 3.5,3.5 to 12.5,1 to 3.5,12.5 to 150,12.5 to 150
"Cn1c(CN2CCCC2)cc2cc(-c3[nH]c(=O)c(C(=O)O)c(O)c3C3CC3)ccc21 [Cpd 323, 5-cyclopropyl-4-hydroxy-6-(1-methyl-2-(pyrrolidin-1-ylmethyl)-1H-indol-5-yl)-2-oxo-1,2-dihydropyridine-3-carboxylic acid]",1 to 3.5,12.5 to 150,12.5 to 150,3.5 to 12.5,12.5 to 150,3.5 to 12.5,12.5 to 150,–,–,12.5 to 150
"Cn1c(CN2CCC2)cc2cc(-c3[nH]c(=O)c(C(=O)O)c(O)c3C3CC3)ccc21 [Cpd 324, 6-(2-(azetidin-1-ylmethyl)-1-methyl-1H-indol-5-yl)-5-cyclopropyl-4-hydroxy-2-oxo-1,2-dihydropyridine-3-carboxylic acid]",1 to 3.5,12.5 to 150,12.5 to 150,3.5 to 12.5,3.5 to 12.5,3.5 to 12.5,12.5 to 150,–,–,12.5 to 150
"Cn1c(CNCC2CC2)cc2cc(-c3[nH]c(=O)c(C(=O)O)c(O)c3C3CC3)ccc21 [Cpd 325, 5-cyclopropyl-6-(2-((cyclopropylmethylamino)methyl)-1-methyl-1H-indol-5-yl)-4-hydroxy-2-oxo-1,2-dihydropyridine-3-carboxylic acid]",3.5 to 12.5,12.5 to 150,12.5 to 150,3.5 to 12.5,3.5 to 12.5,1 to 3.5,12.5 to 150,–,–,12.5 to 150
"Cn1c(CN2CCC2)cc2cc(-c3cc(O)c(C(=O)O)c(=O)[nH]3)ccc21 [Cpd 328, 6-(2-(azetidin-1-ylmethyl)-1-methyl-1H-indol-5-yl)-4-hydroxy-2-oxo-1,2-dihydropyridine-3-carboxylic acid]",3.5 to 12.5,12.5 to 150,12.5 to 150,3.5 to 12.5,12.5 to 150,12.5 to 150,12.5 to 150,–,–,12.5 to 150
